The target of assay [1] is D1R (Rattus norvegicus, UniProt P18901). Description: cAMP level in NG108-15/HA-D1R and CHO-FLAG-DOPR/HA-D1R cells. It is filed as cell-based. The note with it: NG108-15/HA-D1R cells and CHO-FLAG-DOPR/HA-D1R cells; data not shown.
For assay [2], the target named is T1, FLAG-mDOPR (Mus musculus, UniProt P32300). The assay can be described thus: Phosphorylation of the DOPR. The note with it: CHO-FLAG-DOPR/HA-D1R cells; 10 μM for 30 min. The assay is classed as cell-based.
T1 sequence (P32300 whole entry): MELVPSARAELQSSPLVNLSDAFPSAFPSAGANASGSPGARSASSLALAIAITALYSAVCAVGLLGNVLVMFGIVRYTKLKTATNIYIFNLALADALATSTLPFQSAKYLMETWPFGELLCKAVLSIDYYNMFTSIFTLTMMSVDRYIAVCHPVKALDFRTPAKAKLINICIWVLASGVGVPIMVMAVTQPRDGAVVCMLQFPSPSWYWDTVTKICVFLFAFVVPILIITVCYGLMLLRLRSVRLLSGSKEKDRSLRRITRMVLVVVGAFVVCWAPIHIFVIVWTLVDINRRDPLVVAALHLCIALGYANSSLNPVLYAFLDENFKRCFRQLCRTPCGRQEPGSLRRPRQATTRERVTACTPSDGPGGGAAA
Assay [3] relates to ERK1/2 phosphorylation. The assay can be described thus: Immunoblot analysis of phosphorylated ERK1/2 in CHO-FLAG-DOPR/HA-D1R cells. The assay is classed as cell-based, Chinese hamster. The note with it: 10 μM for 30 min. In general terms: A western blot detects proteins with antibodies after separation by electrophoresis.
Assay [4] has as its target endogenous DOPR (Mus musculus, UniProt P32300). The assay can be described thus: DPDPE-stimulated [35S]GTPγS binding to membranes of NG 108-15-HA-D1R cells. The assay is classed as biochemical, mouse neuroblastoma × rat glioma hybrid. The note with it: NG 108-15-HA-D1R cells pretreated with 10 μM for 30 min, n=3. On the technique in general: GTPγS is a poorly hydrolysed GTP analogue; its binding reports G protein activation.

In assay [5] the target is T1, FLAG-mDOPR. The assay is classed as cell-based. The note with it: 10 μM pretreatment for 30 min or 24 h.
The target of assay [6] is FLAG-mouse DOPR (Mus musculus, UniProt P32300). The assay is classed as biochemical. The note with it: CHO-FLAG-DOPR/HA-D1R cells pretreated with 10 μM for 30 min, n=3.
Chain of FLAG-mouse DOPR (P32300 whole entry): as above

The values below come from paper PMC3805374 (Life sciences, 2013).

Chain of D1R (P18901 whole entry): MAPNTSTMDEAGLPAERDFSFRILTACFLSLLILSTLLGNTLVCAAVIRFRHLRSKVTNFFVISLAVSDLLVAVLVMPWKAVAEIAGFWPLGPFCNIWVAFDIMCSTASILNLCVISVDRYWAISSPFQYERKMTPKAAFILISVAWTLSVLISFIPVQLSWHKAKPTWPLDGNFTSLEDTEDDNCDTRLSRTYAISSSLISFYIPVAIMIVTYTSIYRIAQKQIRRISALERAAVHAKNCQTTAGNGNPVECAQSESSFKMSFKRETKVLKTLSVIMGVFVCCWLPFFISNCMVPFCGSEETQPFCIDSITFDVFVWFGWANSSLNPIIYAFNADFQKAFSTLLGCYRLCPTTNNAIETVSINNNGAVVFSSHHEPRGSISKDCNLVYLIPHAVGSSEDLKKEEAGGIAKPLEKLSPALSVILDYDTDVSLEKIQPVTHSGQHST
Chain of endogenous DOPR (P32300 whole entry): as the sequence (P32300 whole entry) above

For the compound `Br.C=CCN1CCc2c(cc(O)c(O)c2Cl)C(c2ccccc2)C1` (racemic) [SKF-82958, (±)-chloro-APB HBr], the cAMP level result in assay [1] is listed as “dose-dependently increased cAMP level”. Moreover, in assay [2], the “Phosphorylation of the DOPR” value was “did not induce phosphorylation of the DOPR”. For the same compound, the “ERK1/2 phosphorylation compared with the control” value in assay [3] is on record as “produced a marked increase in ERK1/2 phosphorylation”. The “Basal [35S]GTPγS binding after pretreatment” value in assay [4] is given as 14.5 ± 1.9 fmol/mg protein; in assay [6], 42.6 ± 7.0 fmol/mg protein. Further, the “Effect on total or cell surface DOPRs” value in assay [5] was “did not affect total or cell surface DOPRs”.
